Data taken from ChEMBL document CHEMBL3400065, “N10,N11-di-alkylamine indolo[3,2-b]quinolines as hemozoin inhibitors: design, synthesis and antiplasmodial activity” (Bioorg Med Chem, 2015).

Tests used:
[1] = Inhibition of beta-hematin formation after 5 to 6 hrs by pyridine-ferrichrome detergent-mediated assay; assay type: physicochemical
[2] = test system: Plasmodium falciparum; assay: Antimalarial activity against ring stage Plasmodium falciparum 3D7 infected with human red blood cells incubated for 48 hrs by SYBR Green method; assay type: functional, organism-based; settings: 3D7, 48 h
[3] = test system: Plasmodium falciparum; assay: Antimalarial activity against ring stage Plasmodium falciparum W2 infected with human red blood cells incubated for 48 hrs by flow cytometry; assay type: functional, organism-based; settings: W2, 48 h
[4] = test system: Plasmodium falciparum; assay: Antimalarial activity against ring stage Plasmodium falciparum Dd2 infected with human red blood cells incubated for 48 hrs by SYBR Green method; assay type: functional; settings: Dd2, 48 h
[5] = Selectivity index, ratio of IC50 for human HepG2A16 cells to IC50 for ring stage Plasmodium falciparum W2; assay type: toxicity; settings: read-out: Ratio IC50
[6] = n-octanol-phosphate buffer partition coefficient, log D in CH3CN-MeOH-phosphate buffer at pH 5.2 by HPLC-UV analysis; assay type: physicochemical
[7] = Cytotoxicity against human HepG2A16 cells by MTT assay; assay type: cell-based
[8] = n-octanol-phosphate buffer partition coefficient, log D in CH3CN-MeOH-phosphate buffer at pH 7.4 by HPLC-UV analysis; assay type: physicochemical
[9] = test system: Plasmodium falciparum; assay: Resistance index, ratio of IC50 for ring stage Plasmodium falciparum Dd2 to IC50 for ring stage Plasmodium falciparum 3D7; assay type: functional
[10] = test system: Plasmodium falciparum; assay: Resistance index, ratio of IC50 for ring stage Plasmodium falciparum W2 to IC50 for ring stage Plasmodium falciparum 3D7; assay type: functional
[11] = test system: Plasmodium falciparum; assay: Ratio of chloroquine IC50 to compound IC50 for ring stage Plasmodium falciparum W2 infected with human red blood cells incubated for 48 hrs by flow cytometry; assay type: functional

Row | IC50 [1] [nM] | IC50 [2] [nM] | IC50 [3] [nM] | IC50 [4] [nM] | logD [6] | logD [8] | SMILES | selectivity ratio [5] | IC50 [7] [nM] | Ratio IC50 [9] | Ratio IC50 [10] | Ratio IC50 [11]
1 | 17400 | 407 | 292 | 572 | 1.5 | – | Clc1ccc2c(NCCCN3CCOCC3)c3c(nc2c1)c1cc(Cl)ccc1n3CCN1CCCC1 | 41 | 11900 | – | – | –
2 | 21100 | 199 | 95 | 311 | 1.5 | – | CCN(CC)CCCNc1c2ccc(Cl)cc2nc2c3cc(Cl)ccc3n(CCN3CCOCC3)c12 | 49 | 4700 | – | – | –
3 | 32900 | 469 | 90 | 678 | 0.69 | – | Clc1ccc2c(NCCCN3CCOCC3)c3c(nc2c1)c1ccccc1n3CCN1CCCC1 | 96 | 8600 | – | – | –
4 | 20400 | 392 | 77 | 481 | 0.54 | 3.23 | CCN(CC)CCCNc1c2ccc(Cl)cc2nc2c3cc(Cl)ccc3n(CCN3CCCC3)c12 | 78 | 6000 | – | – | –
5 | 26900 | 320 | 113 | 453 | 0.72 | – | CCN(CC)CCCNc1c2ccc(Cl)cc2nc2c3ccccc3n(CCN3CCOCC3)c12 | 41 | 4600 | – | – | –
6 | 24800 | 245 | 73 | 215 | 1 | – | CCN(CC)CCNc1c2ccc(Cl)cc2nc2c3cc(Cl)ccc3n(CCN3CCCC3)c12 | 103 | 7500 | – | – | –
7 | 21900 | 480 | 87 | 455 | -0.03 | 1.48 | CCN(CC)CCCNc1c2ccc(Cl)cc2nc2c3ccccc3n(CCN3CCCC3)c12 | 52 | 4500 | – | – | –
8 | 13500 | 660 | 97 | 638 | 0.78 | 3.1 | Clc1ccc2c(NCCCN3CCCCC3)c3c(nc2c1)c1cc(Cl)ccc1n3CCN1CCCC1 | 59 | 5700 | – | – | –
9 | 42900 | 535 | 117 | 658 | -0.01 | 2.8 | Clc1ccc2c(NCCCN3CCCCC3)c3c(nc2c1)c1ccccc1n3CCN1CCCC1 | 37 | 4300 | – | – | –
10 | 14300 | 513 | 165 | 683 | 1.79 | – | CCN(CC)CCNc1c2ccc(Cl)cc2nc2c3cc(Cl)ccc3n(CCN3CCOCC3)c12 | 103 | 16600 | – | – | –
11 | 28200 | – | – | – | – | – | CCN(CC)CCCC(C)Nc1ccnc2cc(Cl)ccc12 (centres undefined) [CHLOROQUINE] | – | – | – | – | –
12 | 10800 | 456 | 126 | 706 | 0.26 | – | CCN(CC)CCCC(C)Nc1c2ccc(Cl)cc2nc2c3cc(Cl)ccc3n(CCN3CCCC3)c12 (centres undefined) | 52 | 6500 | – | – | –
13 | – | – | – | – | – | – | CCN(CC)CCOc1cc(Cl)cc2nc3c4cc(Cl)ccc4n(CCN(CC)CC)c3cc12 | 212 | 5300 | 0.3 | 0.3 | –
14 | 79000 | 468 | 99 | 631 | 0.34 | 2.7 | Clc1ccc2c(NCCN3CCCC3)c3c(nc2c1)c1ccccc1n3CCN1CCCC1 | 46 | 4600 | – | – | –
15 | 98200 | 656 | 158 | 724 | 0.05 | 3.2 | CCN(CC)CCNc1c2ccc(Cl)cc2nc2c3ccccc3n(CCN3CCCC3)c12 | 40 | 6400 | – | – | –
16 | 7900 | 245 | 20 | 314 | 0.1 | 0.6 | CCN(CC)CCCC(C)Nc1c2ccc(Cl)cc2nc2c3ccccc3n(CCN3CCCC3)c12 (centres undefined) | 125 | 2500 | – | – | 10
17 | 23400 | 375 | 124 | 452 | 1.05 | 3 | Clc1ccc2c(NCCN3CCCC3)c3c(nc2c1)c1cc(Cl)ccc1n3CCN1CCCC1 | 70 | 8700 | – | – | –
